This passage reports photoluminescence quantum yield results from the Deep4Chem optical property database.

This data set in a line: photoluminescence quantum yield (fraction); solvent given as SMILES.

In turn, `CN(C)c1ccc(C2=Cc3cccc[n+]3[B-](F)(F)O2)cc1` gave a photoluminescence quantum yield (in C1CCOC1) of 0.684; a photoluminescence quantum yield (in C1COCCO1) of 0.794; a photoluminescence quantum yield (in CC1CCCCC1) of 0.519; a photoluminescence quantum yield (in CC#N) of 0.517; a photoluminescence quantum yield (in CCOC(C)=O) of 0.699; a photoluminescence quantum yield (in CCOCC) of 0.868. The photoluminescence quantum yield worked out at 0.382 (in CN(C)C=O), 0.454 (in CO), 0.569 (in COC(C)=O) and 0.705 (in ClC(Cl)Cl).
Regarding `O=Cc1ccc(C2=C3C=c4c(oc5ccccc45)=[N+]3[B-](F)(F)n3c2cc2c4ccccc4oc23)cc1`, the photoluminescence quantum yield (in C1CCCCC1) was found to be 0.63; the photoluminescence quantum yield (in C1CCOC1) is 0.42; the photoluminescence quantum yield (in CC#N) worked out at 0.37; the photoluminescence quantum yield (in CCOC(C)=O) was determined as 0.39; the photoluminescence quantum yield (in CN(C)C=O) worked out at 0.45; the photoluminescence quantum yield (in CO) was determined as 0.44. Further, the photoluminescence quantum yield came out at 0.53 (in Cc1ccccc1) and 0.5 (in ClCCl).
With `COc1cc(-c2nc3sc4ccccc4c3s2)cc(OC)c1OC`, the photoluminescence quantum yield (in CS(C)=O) is 0.6.
`CCCCN(CCCC)c1ccc(C#Cc2cc(C#Cc3cc(C(F)(F)F)cc(C(F)(F)F)c3)c(C#Cc3ccc(N(CCCC)CCCC)cc3)cc2C#Cc2cc(C(F)(F)F)cc(C(F)(F)F)c2)cc1` yielded a photoluminescence quantum yield (in ClCCl) of 0.25.
Turning to `CCN(CC)c1ccc2cc(/C=C/C3=CC(/C=C/c4cc5ccc(N(CC)CC)cc5oc4=O)=[O+][B-](F)(F)O3)c(=O)oc2c1`, the photoluminescence quantum yield reads like this: (in CC#N) 0.012; (in CC(C)=O) 0.032; (in CCOC(C)=O) 0.418; (in CN(C)C=O) 0.096; (in CS(C)=O) 0.008; (in Cc1ccccc1) 0.849. The photoluminescence quantum yield was 0.504 (in ClC(Cl)Cl) and 0.271 (in ClCCl).
Compound `CC(=O)c1ccn2c3c(c(-c4cc[n+](C)cc4)c2c1)CN(C)C3=O` displayed a photoluminescence quantum yield (in O) of 0.093.
`Cc1ccc(-n2c(-c3ccccc3[N-]S(=O)(=O)c3ccc(C)cc3)[nH+]c3c4ccccc4c4ccccc4c32)cc1` yielded a photoluminescence quantum yield (in Cc1ccccc1) of 0.468.
With `NS(=O)(=O)c1ccc(N2N=C(c3ccc(O)cc3)CC2c2ccc(F)cc2)cc1` (centres undefined), the photoluminescence quantum yield is, setting by setting: (in C1CCOC1) 0.88; (in C1COCCO1) 0.78; (in CC#N) 0.75; (in CC(C)O) 0.52; (in CCO) 0.47; (in CCOC(C)=O) 0.87. Moreover, the photoluminescence quantum yield was determined as 0.89 (in CN(C)C=O), 0.36 (in CO), 0.93 (in CS(C)=O) and 0.57 (in O).
Consider `CCC1=C(C)C(=O)n2c1cc1c(c(C)c(C(=O)OCC(C)C)n1CC(C)C)c2=O`, for which the photoluminescence quantum yield (in C1CCCCC1) came out at 0.05; the photoluminescence quantum yield (in CO) is 0.74; the photoluminescence quantum yield (in CS(C)=O) worked out at 0.84; the photoluminescence quantum yield (in ClC(Cl)Cl) came to 0.78; the photoluminescence quantum yield (in c1ccccc1) amounted to 0.22.
For `COc1ccc(C2=C/C(=C\c3ccc(C#N)cc3)C(=O)N2)cc1OC`, the photoluminescence quantum yield (in C1COCCO1) amounted to 0.188.
In turn, `COC(=O)C(Cc1ccc2oc(-c3ccc(N(c4ccccc4)c4ccccc4)cc3)nc2c1)NC(=O)OC(C)(C)C` (centres undefined) returned a photoluminescence quantum yield (in C1CCCCC1) of 0.87; a photoluminescence quantum yield (in C1CCOC1) of 0.77; a photoluminescence quantum yield (in C1COCCO1) of 0.47; a photoluminescence quantum yield (in CC1CCCCC1) of 0.94; a photoluminescence quantum yield (in CC1COC(=O)O1) of 0.67; a photoluminescence quantum yield (in CC#N) of 0.62. For the same compound, the photoluminescence quantum yield amounted to 0.68 (in CC(C)=O); 0.77 (in CC(C)O); 0.63 (in CC(O)CO); 0.98 (in CCCCCC); 0.99 (in CCCCCCCC); 0.76 (in CCCCCO). For the same compound, the photoluminescence quantum yield is 0.87 (in CCCCO); 0.61 (in CCO); 0.8 (in CCOC(C)=O); 0.72 (in CN(C)C=O); 0.42 (in CO); 0.44 (in COCCOC). The same compound came in with a photoluminescence quantum yield (in CS(C)=O) of 0.69; a photoluminescence quantum yield (in ClC(Cl)Cl) of 0.88; a photoluminescence quantum yield (in ClCCl) of 0.87; a photoluminescence quantum yield (in N#Cc1ccccc1) of 0.26; a photoluminescence quantum yield (in NC=O) of 0.35; a photoluminescence quantum yield (in O) of 0.003. This compound returned a photoluminescence quantum yield (in OCC(F)(F)F) of 0.05.
`COCCC1=Cc2nc1ccc1[nH]c(cc1CCOC)c1nc(c(NC(=O)CCCC(=O)O)cc3[nH]c2cc3CCOC)C(CCOC)=C1`: the photoluminescence quantum yield (in Cc1ccccc1) was determined as 0.15.
As for `CCCCCCCCn1c2ccccc2c(=O)c2ccccc21`, the photoluminescence quantum yield (in CS(C)=O) stood at 0.66.
Regarding `Cc1sc(-c2ccc(-c3nc(-c4ccccc4)c(-c4ccccc4)[nH]3)cc2)c(C)c1C1=C(c2c(C)n(C)c3ccccc23)C(F)(F)C(F)(F)C1(F)F`, where the note is “in C1CCOC1”, the photoluminescence quantum yield was determined as 0.084.
With `Cc1c(C)n2c(COC(=O)c3ccc(F)cc3)c(C)c(=O)n2c1=O`, where the note is “in CCO”, the photoluminescence quantum yield was 0.631.
As for `C(/C=C/c1ccc(-n2c3ccccc3c3ccccc32)cc1)=C\c1ccncc1`, the photoluminescence quantum yield was 0.55 (in C1COCCO1), 0.32 (in CC#N), 0.78 (in CCCCCCC) and 0.02 (in CO).
On to `O=C(O)c1ccc(C(=O)O)c2cc3ccccc3cc12`, for which the photoluminescence quantum yield reads like this: (in C1CCOC1) 0.61; (in CN(C)C=O) 0.19.
On to `CC(=O)Nc1ccc(C2=C/C(=C\c3ccc(C#N)cc3)C(=O)N2CC(C)C)cc1`, for which, under “in C1COCCO1”, the photoluminescence quantum yield was 0.218.
For `COCCOCCOCCOCCOc1cc(C=O)c(OCCOCCOCCOCCOC)cc1C=O`, the photoluminescence quantum yield runs as follows: (in CC(C)(C)O) 0.12; (in CC(C)CO) 0.1; (in CC(C)O) 0.11; (in CCCCO) 0.09; (in CCCO) 0.14; (in CCO) 0.18. The photoluminescence quantum yield worked out at 0.04 (in CN(C)C=O); 0.05 (in CNC=O); 0.22 (in CO); 0.31 (in NC=O); 0.55 (in O).
Take `Oc1ccc(-c2ccco2)cc1-c1nc2ccccc2s1`: the photoluminescence quantum yield worked out at 0.0588 (in CCO), 0.0292 (in ClCCl) and 0.07 (in O).
In the case of `Brc1c(Br)c2ccc3c(Br)c(Br)c4ccc5ccc1c1c5c4c3c21`, the photoluminescence quantum yield (in C1CCCCC1) is 0.0012.
As to `COc1cc(/C=C/c2nc(N3CCOCC3)c3c([n+]2[O-])CCCC3)cc(OC)c1OC`, the photoluminescence quantum yield (in ClCCl) was 0.23.
In turn, `CCCCCCCCc1ccc(-n2c3c(c4c2c2c(n4-c4ccc(CCCCCCCC)cc4)-c4ccccc4NB2c2ccccc2)B(c2ccccc2)Nc2ccccc2-3)cc1` yielded a photoluminescence quantum yield (in Cc1ccccc1) of 0.7.
`COc1cc(/C=C/c2nc3ccccc3o2)c(OC)cc1/C=C/c1nc(C)nc(C)n1`: the photoluminescence quantum yield by setting is: (in C1CCOC1) 0.89; (in CC#N) 0.85; (in ClC(Cl)Cl) 0.86; (in ClCCl) 0.86.
Turning to `CCC1(CC)c2cc(/C=C/c3ccc(/C=C/c4ccc5c(c4)C(CC)(CC)c4cc(N6c7ccccc7Sc7ccccc76)ccc4-5)cc3)ccc2-c2ccc(N3c4ccccc4Sc4ccccc43)cc21`, the photoluminescence quantum yield by setting is: (in C1CCOC1) 0.33; (in CC#N) 0.26; (in CCCCCC) 0.72; (in Cc1ccccc1) 0.58; (in ClCCl) 0.33.
In turn, `N#Cc1c(-n2c3ccccc3c3ccccc32)c(-n2c3ccccc3c3ccccc32)cc(-n2c3ccccc3c3ccccc32)c1-n1c2ccccc2c2ccccc21` returned a photoluminescence quantum yield (in Cc1ccccc1) of 0.49.
For the compound `CCCCN1C(=O)c2cc(Oc3ccc(C(C)(C)C)cc3)c3c4c(Oc5ccc(C(C)(C)C)cc5)cc5c6c(cc(Oc7ccc(C(C)(C)C)cc7)c(c7c(Oc8ccc(C(C)(C)C)cc8)cc(c2c37)C1=O)c64)C(=O)N(CCCC)C5=O`, the photoluminescence quantum yield stood at 0.82 (in C1CCOC1), 0.811 (in Cc1ccccc1), 0.83 (in ClC(Cl)Cl) and 0.802 (in ClCCl).
Regarding `CSc1ccc(/C=C/c2ccncn2)cc1`, where the note is “in ClCCl”, the photoluminescence quantum yield amounted to 0.01.
`c1ccc2cc3cnccc3cc2c1`: the photoluminescence quantum yield (in CCO) stood at 0.6.
Consider `C[Si](C)(C)C#Cc1ccc2c3cccc4cccc(c5cccc1c52)c43`, for which the photoluminescence quantum yield (in C1CCCCC1) stood at 0.88.
For `CCCCCCN(CCCCCC)c1ccc(C#Cc2ccc(C#Cc3ccc(-c4ccc(C#Cc5ccc(C#Cc6ccc(N(CCCCCC)CCCCCC)cc6)cc5)cc4)cc3)cc2)cc1`, the photoluminescence quantum yield (in Cc1ccccc1) worked out at 0.82.
As for `COc1ccc(C2=CC3=C(c4c(C)cc(C)cc4C)c4cc(-c5ccc(OC)cc5)c(-c5ccc(OC)cc5)n4[B-](F)(F)[N+]3=C2c2ccc(OC)cc2)cc1`, the photoluminescence quantum yield reads like this: (in C1CCCCC1) 0.64; (in C1CCOC1) 0.42; (in CC#N) 0.24; (in Cc1ccccc1) 0.51; (in ClCCl) 0.42.
Turning to `c1ccc(-c2ccc3c4ccc(-c5ccccc5)c5c(-c6ccccc6)ccc(c6cccc2c63)c54)cc1`, the photoluminescence quantum yield (in ClCCl) is 0.94.
Compound `COc1ccc2c3ccc(OC)cc3n(-c3ccc(-c4nnc(-c5c(C(C)C)cc(C(C)C)cc5C(C)C)o4)cc3)c2c1` yielded a photoluminescence quantum yield (in Cc1ccccc1) of 0.03.
